From EP0094564A2, “Azolyl-methyl oxiranes, their preparation and use as medicaments and plant protecting agents” (BASF Aktiengesellschaft, priority 1982, dated 1983)
In brackets after ≈: the same amount, converted by molar mass.

Legend:
[1] = tested on: Weizenmehltau (Erysiphe graminis var. tritici); assay: Versuch 1: activity against wheat powdery mildew on wheat seedlings; type: in vivo; conditions: 0,025; 0,006; 0,0015 %ige Spritzbrühen; sprayed 24 h before inoculation; assessed after 7 days; value given as 'beispielsweise'
Description: Blätter von in Töpfen gewachsenen Weizenkeimlingen der Sorte "Jubilar" wurden mit wäßriger Spritzbrühe, die 80 % (Gew.%) Wirkstoff und 20 % Emulgiermittel in der Trockensubstanz enthielt, besprüht und 24 Stunden nach dem Antrocknen des Spritzbelages mit Oidien (Sporen) des Weizenmehltaus (Erysiphe graminis var. tritici) bestäubt. Die Versuchspflanzen wurden anschließend im Gewächshaus bei Temperaturen zwischen 20 und 22 °C und 75 bis 80 % relativer Luftfeuchtigkeit aufgestellt. Nach 7 Tagen wurde das Ausmaß der Mehltauentwicklung ermittelt.

[2] = tested on: Weizenbraunrost (Puccinia recondita); assay: Versuch 2: activity against wheat brown rust on wheat seedlings; type: in vivo; conditions: 0,025; 0,006; 0,0015 %ige Spritzbrühen; sprayed 24 h after inoculation; assessed after 8 days; value given as 'beispielsweise'
Description: Blätter von in Töpfen gewachsenen Weizensämlingen der Sorte "Jubilar" wurden mit Sporen des Braunrostes (Puccinia recondita) bestäubt. Danach wurden die Töpfe für 24 Stunden bei 20 bis 22°C in eine Kammer mit hoher Luftfeuchtigkeit (90 bis 95 %) gestellt. Während dieser Zeit keimten die Sporen aus und die Keimschläuche drangen in das Blattgewebe ein. Die infizierten Pflanzen wurden anschließend mit wäßrigen Spritzbrühen, die 80 % Wirkstoff und 20 % Emulgiermittel in der Trockensubstanz enthielten, tropfnaß gespritzt. Nach dem Antrocknen des Spritzbelages wurden die Versuchspflanzen im Gewächshaus bei Temperaturen zwischen 20 und 22°C und 65 bis 70 % relativer Luftfeuchte aufgestellt. Nach 8 Tagen wurde das Ausmaß der Rostpilzentwicklung auf den Blättern ermittelt.

[3] = tested on: Gurkenmehltau (Erysiphe cichoracearum); assay: Versuch 3: activity against cucumber powdery mildew on cucumber seedlings; type: in vivo; conditions: 0,025 %ige Spritzbrühe; sprayed about 20 h after inoculation; assessed after 21 days; value given as 'beispielsweise'
Description: Blätter von in Töpfen gewachsenen Gurkenkeimlingen der Sorte "Chinesische Schlange" wurden im Zweiblattstadium mit einer Sporensuspension des Gurkenmehltaus (Erysiphe cichoracearum) besprüht. Nach etwa 20 Stunden wurden die Versuchspflanzen mit wäßriger Spritzbrühe, die 80 % Wirkstoff und 20 % Emulgiermittel in der Trockensubstanz enthielt, bis zur Tropfnässe besprüht. Nach dem Antrocknen des J Spritzbelages wurden sie anschließend im Gewächshaus bei Temperaturen zwischen 20 und 22^00 und 70 bis 80 % relativer Luftfeuchtigkeit aufgestellt. Zur Beurteilung der Wirksamkeit der neuen Stoffe wurde das Ausmaß der Pilzentwicklung nach 21 Tagen beurteilt.

Botrytis cinerea = assay: Versuch 4: activity against Botrytis cinerea on paprika seedlings; type: in vivo; conditions: 0,05 %ige Spritzbrühe; sprayed before inoculation; assessed after 5 days; value given as 'beispielsweise'
Description: Paprikasämlinge der Sorte "Neusiedler Ideal Elite" wurden, nachdem sich 4 bis 5 Blätter gut entwickelt hatten, mit wäßrigen Suspensionen, die 80 % Wirkstoff und 20 % Emulgiermittel in der Trockensubstanz enthielten, tropfnaß gespritzt. Nach dem Antrocknen des Spritzbelages wurden die Pflanzen mit einer Konidienaufschwemmung des Pilzes Botrytis cenerea besprüht und bei 22 bis 24 C in eine Kammer mit hoher Luftfeuchtigkeit gestellt. Nach 5 Tagen hatte sich die Krankheit auf den unbehandelten Kontrollpflanzen so stark entwickelt, daß die entstandenen Blattnekrosen den überwiegenden Teil der Blätter bedeckten.

Chaetomium globosum = assay: Versuch 6: fungal growth on malt extract agar containing active ingredient; type: cell-based; parameters: key: 0 = kein Pilzwachstum (Pilzmyzel abgetötet); 1 = geringes Pilzwachstum (bis 1/3 der Agaroberfläche bewachsen); 3 = mittleres Pilzwachstum (bis 2/3 der Agaroberfläche bewachsen); 5 = ungehemmtes Pilzwachstum (gesamte Agaroberfläche bewachsen); conditions: 40 ppm in 5 % malt extract agar; 5 days at 25 °C; growth score
Description: (§1) Die Wirkstoffe werden in Aceton gelöst, in Mengen von 40 ppm einem verflüssigten 5 %igen Malzextraktagar zugesetzt. Der Agar wird in Petrischalen ausgegossen und nach dem Erstarren werden die fungizidhaltigen Nähragarplatten zentral mit Myzel der holzzerstörenden Pilze Coniophora puteana und Trametes versicolor, des Moderfäule und Stockflecken verursachenden Pilzes Chaetomium globosum sowie mit Sporen des grünen Holzschimmels Trichoderma viride beimpft.
(§2) Nach fünftägiger Bebrütung der Schalen bei 25 °C wird die Entwicklung der Pilzkolonien auf dem Nährboden im Vergleich mit der Kontrolle (ohne Wirkstoff-Zusatz) beurteilt: • 0 = kein Pilzwachstum (Pilzmyzel abgetötet) • 1 = geringes Pilzwachstum (bis 1/3 der Agaroberfläche bewachsen) • 3 = mittleres Pilzwachstum (bis 2/3 der Agaroberfläche bewachsen) • 5 = ungehemmtes Pilzwachstum (gesamte Agaroberfläche bewachsen)

Coniophora puteana = assay: as above; type: cell-based; parameters: key: 0 = kein Pilzwachstum (Pilzmyzel abgetötet); 1 = geringes Pilzwachstum (bis 1/3 der Agaroberfläche bewachsen); 3 = mittleres Pilzwachstum (bis 2/3 der Agaroberfläche bewachsen); 5 = ungehemmtes Pilzwachstum (gesamte Agaroberfläche bewachsen); conditions: 40 ppm in 5 % malt extract agar; 5 days at 25 °C; growth score
Description: as §1, §2

Trametes versicolor = assay: as above; type: cell-based; parameters: key: 0 = kein Pilzwachstum (Pilzmyzel abgetötet); 1 = geringes Pilzwachstum (bis 1/3 der Agaroberfläche bewachsen); 3 = mittleres Pilzwachstum (bis 2/3 der Agaroberfläche bewachsen); 5 = ungehemmtes Pilzwachstum (gesamte Agaroberfläche bewachsen); conditions: 40 ppm in 5 % malt extract agar; 5 days at 25 °C; growth score
Description: as §1, §2

Trichoderma viride = assay: as above; type: cell-based; parameters: key: 0 = kein Pilzwachstum (Pilzmyzel abgetötet); 1 = geringes Pilzwachstum (bis 1/3 der Agaroberfläche bewachsen); 3 = mittleres Pilzwachstum (bis 2/3 der Agaroberfläche bewachsen); 5 = ungehemmtes Pilzwachstum (gesamte Agaroberfläche bewachsen); conditions: 40 ppm in 5 % malt extract agar; 5 days at 25 °C; growth score
Description: as §1, §2

Abs. corym. 1 = assay: Agar dilution test, minimal inhibitory concentration in vitro; type: cell-based; conditions: read-out: Minimale Hemmkonzentration (MHK) Abs. corym. 1
Description: (§3) Die Wirkung gegen Dermatophyten, Bakterien und Protozonen kann nach Methoden, wie sie beispielsweise in P. Klein, Bakteriologische Grundlagen der chemotherapeutischen Laboratoriumspraxis, Springer-Verlag Berlin, 1957, beschrieben wird, aufgezeigt werden. Die überraschende Wirkung gegenüber Hefen wurde im Pseudomyzel- und Myzelphasentest mit Candida albicans nachgewiesen (vgl. DE-OS 30 10 093). Es wurde geprüft, welche minimalen Hemmkonzentrationen (MHK-Werte) im Agardilutionstest erreicht werden. In der Tabelle 1 sind die Ergebnisse zusammengefaßt.

Aps.fum. 2 = assay: as above; type: cell-based; conditions: read-out: Minimale Hemmkonzentration (MHK) Aps.fum. 2
Description: as §3

E.coli muta-flor = assay: as above; type: cell-based; conditions: Escherichia coli, read-out: Minimale Hemmkonzentration (MHK) E.coli muta-flor
Description: as §3

Epid. flocc. 157 = assay: as above; type: cell-based; conditions: read-out: Minimale Hemmkonzentration (MHK) Epid. flocc. 157
Description: as §3

Microsp. ferrug. 5 = assay: as above; type: cell-based; conditions: read-out: Minimale Hemmkonzentration (MHK) Microsp. ferrug. 5
Description: as §3

Mucor pus. 6 = assay: as above; type: cell-based; conditions: read-out: Minimale Hemmkonzentration (MHK) Mucor pus. 6
Description: as §3

Staph. aur. SG 511 = assay: as above; type: cell-based; conditions: read-out: Minimale Hemmkonzentration (MHK) Staph. aur. SG 511
Description: as §3

Strept. faec. 8043 = assay: as above; type: cell-based; conditions: read-out: Minimale Hemmkonzentration (MHK) Strept. faec. 8043
Description: as §3

Trichoph. ment. 21 = assay: as above; type: cell-based; conditions: read-out: Minimale Hemmkonzentration (MHK) Trichoph. ment. 21
Description: as §3

Cand.alb. H = assay: Candida albicans pseudomycelium/mycelium phase test, MIC; type: cell-based; conditions: in vitro, column H, read-out: Minimale Hemmkonzentration (MHK) Cand.alb. H
Description: as §3

Entamoeb hist. = assay: Minimal inhibitory concentration in vitro (protozoa); type: cell-based; conditions: read-out: Minimale Hemmkonzentration (MHK) Entamoeb hist.
Description: as §3

Trichom. vag. = assay: as above; type: cell-based; conditions: read-out: Minimale Hemmkonzentration (MHK) Trichom. vag.
Description: as §3

Cand.alb. M = assay: Candida albicans pseudomycelium/mycelium phase test, MIC (column M); type: cell-based; conditions: in vitro, read-out: Minimale Hemmkonzentration (MHK) Cand.alb. M
Description: as §3

Compound	fungizide Wirkung gegen Weizenmehltau [1] [%]	fungizide Wirkung gegen Weizenbraunrost [2] [%]	fungizide Wirkung gegen Botrytis cinerea an Paprika (Botrytis cinerea) [%]	MIC (Abs. corym. 1) [µg/mL]	MIC (Aps.fum. 2) [µg/mL]	MIC (E.coli muta-flor) [µg/mL]	MIC (Epid. flocc. 157) [µg/mL]	MIC (Microsp. ferrug. 5) [µg/mL]	MIC (Mucor pus. 6) [µg/mL]	MIC (Staph. aur. SG 511) [µg/mL]	MIC (Strept. faec. 8043) [µg/mL]	MIC (Trichoph. ment. 21) [µg/mL]	MIC (Cand.alb. H) [µg/mL]	MIC (Entamoeb hist.) [µg/mL]	MIC (Trichom. vag.) [µg/mL]	MIC (Cand.alb. M) [µg/mL]	further results
Clc1ccc(C2OC2(Cn2cncn2)c2ccc(Br)cc2)cc1 (single isomer, unassigned) [Beispiel 44]	100	100	97	–	–	–	–	–	–	–	–	–	–	–	–	–	fungizide Wirkung gegen Gurkenmehltau [3]: 100%; Wirksamkeit gegen Chaetomium globosum (Chaetomium globosum): 1; Wirksamkeit gegen Coniophora puteana (Coniophora puteana): 0; Wirksamkeit gegen Trametes versicolor (Trametes versicolor): 0; Wirksamkeit gegen Trichoderma viride (Trichoderma viride): 0
Clc1ccc(C2(Cn3cncn3)OC2c2ccc(Br)cc2)cc1 (single isomer, unassigned) [Beispiel 46]	100	100	97	–	–	–	–	–	–	–	–	–	–	–	–	–	Wirksamkeit gegen Chaetomium globosum (Chaetomium globosum): 0; Wirksamkeit gegen Coniophora puteana (Coniophora puteana): 0; Wirksamkeit gegen Trametes versicolor (Trametes versicolor): 0; Wirksamkeit gegen Trichoderma viride (Trichoderma viride): 0
O=C(Cn1cncn1)c1ccc(Cl)cc1Cl [Wirkstoff B, (2,4-Dichlorphenyl)-1,2,4-triazol-1-yl-methylketon, reference compound]	90	50	70	–	–	–	–	–	–	–	–	–	–	–	–	–	–
CC(C)(C)C1(Cn2ccnc2)OC1c1ccc(Cl)cc1Cl (single isomer, unassigned) [Beispiel 18]	–	–	–	32 (≈ 98.4 µM)	0.5 (≈ 1.54 µM)	> 128	0.25 (≈ 0.769 µM)	0.25 (≈ 0.769 µM)	16 (≈ 49.2 µM)	4 (≈ 12.3 µM)	2 (≈ 6.15 µM)	0.5 (≈ 1.54 µM)	> 16	> 1	> 16	–	fungizide Wirkung gegen Gurkenmehltau [3]: 100%
OC(Cn1ccnc1)c1ccc(Cl)cc1Cl (centres unmarked) [Wirkstoff A, 1-(2,4-Dichlorphenyl)-2-(imidazol-1-yl)-ethan-1-ol, reference compound]	90	50	70	–	–	–	–	–	–	–	–	–	–	–	–	–	–
Clc1ccc(C2(Cn3ccnc3)OC2c2ccc(Br)cc2)cc1 (single isomer, unassigned) [Beispiel 47]	–	–	–	2 (≈ 5.13 µM)	16 (≈ 41.1 µM)	> 128	1 (≈ 2.57 µM)	0.25 (≈ 0.642 µM)	2 (≈ 5.13 µM)	8 (≈ 20.5 µM)	4 (≈ 10.3 µM)	1 (≈ 2.57 µM)	64 (≈ 164 µM)	> 1	> 16	0.0156 (≈ 0.04 µM)	–
Clc1ccc(C2(Cn3ccnc3)OC2c2ccc(Cl)cc2Cl)cc1 (single isomer, unassigned) [Beispiel 1, 2-(1H-Imidazol-1-yl-methyl)-2-(4-chlorphenyl)-3-(2,4-dichlorphenyl)-oxiran]	100	–	97	0.5 (≈ 1.32 µM)	1 (≈ 2.63 µM)	> 128	0.5 (≈ 1.32 µM)	–	1 (≈ 2.63 µM)	16 (≈ 42.1 µM)	128 (≈ 337 µM)	0.5 (≈ 1.32 µM)	16 (≈ 42.1 µM)	–	> 16	< 0.0039	fungizide Wirkung gegen Gurkenmehltau [3]: 100%
CC(C)(C)c1ccc(C2OC2(Cn2ccnc2)c2ccc(Cl)cc2Cl)cc1 (single isomer, unassigned) [Beispiel 21]	–	–	–	16 (≈ 39.9 µM)	> 128	> 128	16 (≈ 39.9 µM)	8 (≈ 19.9 µM)	8 (≈ 19.9 µM)	8 (≈ 19.9 µM)	2 (≈ 4.98 µM)	16 (≈ 39.9 µM)	2 (≈ 4.98 µM)	> 1	> 16	1 (≈ 2.49 µM)	–
COc1cccc(C2OC2(Cn2ccnc2)c2ccc(Cl)cc2)c1 (single isomer, unassigned) [Beispiel 29]	–	–	–	8 (≈ 23.5 µM)	16 (≈ 46.9 µM)	> 128	2 (≈ 5.87 µM)	2 (≈ 5.87 µM)	4 (≈ 11.7 µM)	16 (≈ 46.9 µM)	4 (≈ 11.7 µM)	2 (≈ 5.87 µM)	128 (≈ 376 µM)	> 1	> 16	0.25 (≈ 0.734 µM)	–
COc1cccc(C2OC2(Cn2cncn2)c2ccc(Cl)cc2)c1 (single isomer, unassigned) [Beispiel 30]	–	100	97	16 (≈ 46.8 µM)	> 128	> 128	8 (≈ 23.4 µM)	2 (≈ 5.85 µM)	8 (≈ 23.4 µM)	> 128	> 128	8 (≈ 23.4 µM)	64 (≈ 187 µM)	> 1	> 16	2 (≈ 5.85 µM)	–
Clc1ccc(C2(Cn3cncn3)OC2c2ccc(Cl)cc2Cl)cc1 (single isomer, unassigned) [Beispiel 3, 2-(1,2,4-Triazol-1-yl--methyl)-2-(4-chlorphenyl)-3-(2,4-dichlorphenyl)-oxiran]	–	100	97	2 (≈ 5.25 µM)	> 128	> 128	4 (≈ 10.5 µM)	2 (≈ 5.25 µM)	1 (≈ 2.63 µM)	32 (≈ 84.1 µM)	> 128	8 (≈ 21 µM)	> 128	> 1	> 16	–	–
